Test results reported in US20090275514A1, “USE OF CALMODULIN KINASE II INHIBITORS TO TREAT OR PREVENT HEART MUSCLE INFLAMMATION” (priority 2008, published 2009).

Experiments:
[1] = test system: Cfb expression in neonatal cardiomyocytes; assay: LPS-induced Cfb expression in cultured neonatal cardiomyocytes (qRT-PCR); assay type: cell-based, mouse
Experimental: (§1) All animal experiments were done in compliance with the “Guiding Principles for the Care and Use of Laboratory Animals.” Mouse neonatal cardiac myocytes were isolated from 1 to 3-day-old newborn B6D2/F1 mice according to an established protocol. Hearts were dissected and incubated with F-10 nutrient medium, containing 140 μg/ml of collagenase type-2 (Sigma) and 440 μg/ml pancreatin (Sigma) until cells were dissociated. The cells were then washed, resuspended in 1:1 mix of Dulbecco's minimal Eagle's medium (DMEM) and F10 nutrient mix with 5% each of equine and bovine calf serum. These cells were pre-plated in tissue culture dishes for 1 h to allow for attachment of nonmyocytes. The resulting non-adherent myocytes were plated on fibronectin-coated (Sigma) tissue culture dishes. […]
(§2) Total RNA was isolated from mouse heart, liver, isolated adult cardiomyocytes, or cultured neonatal cardiomyocytes using Qiagen RNA isolation kit. RNA samples were quantified by determining A260 in capillary cuvettes (Gene Machine, Pharmacia). […]
(§3) For SYBR Green quantitative real-time PCR, 1 μl of reverse transcription reaction was mixed with 10 pmoles each specific primer and 12.5 μl SYBR PCR Master Mix (BioRad). […] The threshold cycle (CT) was determined by the icycler software, and quantification of relative mRNA levels was performed by ΔΔCT method.

[2] = test system: Cfb expression in neonatal cardiomyocytes; assay: TNFα-induced Cfb expression in cultured neonatal cardiomyocytes (qRT-PCR); assay type: cell-based, mouse; details: RNA after 12 h
Experimental: as §1, §2, §3

[3] = test system: gene expression in infarcted hearts; assay: cDNA microarray of infarcted hearts (CaMKII-regulated genes); assay type: in vivo, mouse; details: three weeks after MI; compared to infarcted AC3-C hearts; 8,600 genes on array
Experimental: (§4) Mouse hearts were infarcted by opening the thoracic cavity and placing a ligature on the left descending coronary artery, as described (3). Both male and female mice were infracted, and three-week post-infarction, RNA was isolated from cardiac tissue using RNeasy kit (Qiagen). Hearts were harvested one week after MI surgery for protein studies. Gene expression profiles of pooled RNA from at least five hearts of each gender were determined from cDNA microarrays containing 8600 elements derived from clones isolated from normalized cDNA libraries or purchased from ResGen (Invitrogen) as described previously (52). Differential expression values were calculated as the ratio of the median of background-subtracted fluorescent intensity of the experimental RNA to the median of background-subtracted fluorescent intensity of the control RNA. […] For the analyses, the results from both genders were compiled.

[4] = test system: CFB protein in infarcted hearts; assay: CFB protein in hearts after myocardial infarction (immunoblotting); assay type: in vivo, mouse; details: one week following MI; transgenic hearts compared to WT
Experimental: as §4
Tissue samples were homogenized in modified RIPA buffer (50 mM Hepes, pH 7.5; 150 mM NaCl; 5 mM EDTA; 1% v/v NP-40 and 0.5% w/v deoxycholate) containing mixture of protease and phosphatase inhibitors. […] Protein bands were detected using ECL reagent (Lumi-Light, Roche), and loading was routinely monitored by Coomassie staining of the blots after antibody probing. For quantification, QuantityOne software (BioRad) was used.

[5] = neonatal cardiomyocytes from transgenic mice, compared to WT cells

Compound | induction of Cfb mRNA by LPS ([1]; WT neonatal cardiomyocytes, water-soluble KN-93 (2.5 μM) added an hour prior to LPS 10 μg/ml, RNA after 12 h) | induction of Cfb expression by TNFα ([2]; neonatal cardiomyocytes, TNFα (100 pg/ml) with water-soluble KN-93 (2.5 μM)) | number of genes with reduced expression in infarcted hearts [3] | CFB protein in heart after MI [4] | induction of Cfb mRNA by LPS in cardiomyocytes expressing the peptide [1, 5] | induction of Cfb by TNFα in cardiomyocytes expressing the peptide [2, 5]
COc1ccc(S(=O)(=O)N(CCO)c2ccccc2CN(C)CC=Cc2ccc(Cl)cc2)cc1 [KN-93] | significantly (P<0.001) attenuated induction of Cfb mRNA | significantly blunted |  |  |  | 
AC3-I: CaMKII-inhibitory peptide of SEQ ID NO:16, transgenically expressed in cardiomyocytes (KKALHRQEAVDCL) |  |  | 88 genes | Significantly reduced CFB protein | strong attenuation of Cfb induction | significantly lower
